“And” between values parts separate entries of the source, which are not always exact repeats. Identical values can stand only once. The source made the active and inactive calls. The rule behind the calls is not given here.

System in the first assay: not listed separately
Briefly: fungal lysis by compounds in C. neoformans – plate reader, dry powder, set 2, dose response (AID 743305). As to conditions: Cryptococcus neoformans cell lysis, plate reader; at 35 µM (top of the series).
`OCc1nc2ccccc2n1CCOc1ccccc1`: the activity change, negative = lysis was -11.6% (inactive).
On the same count and under the same terms, to `CCc1nc2ccccc2n1CCOc1ccccc1` belongs -12.5% (inactive).
Same read-out and setting: for `O=S(=O)(c1ccc(OCCn2cnc3ccccc32)cc1)N1CCOCC1` the value was -16.9% (inactive); for `COc1ccc(OCCn2cnc3ccccc32)cc1`, -13.3% (inactive); for `CS(=O)(=O)c1ccc(OCCn2cnc3ccccc32)cc1`, -6.3% (inactive).
The same measure, in the same setting: for `c1ccc(-c2ccc(OCCn3cnc4ccccc43)cc2)cc1` the value was -7.29% (inactive); for `COc1ccccc1OCCn1c(=S)[nH]c2ccccc21`, -5.77% (inactive).

The next assay concerns Cryptococcus neoformans cell lysis, plate reader. Described as above.
Settings: not given
Regarding `NCC(=O)Nc1ccc(-n2nc(C(F)(F)F)cc2-c2ccc3c(ccc4ccccc43)c2)cc1`, the half-maximal activity concentration (AC50) is 10.7 µM.
On the same count and under the same terms, for `CC(C)Oc1ccc(OCCn2cnc3ccccc32)cc1` the value was 24.3 µM; for `S=c1[nH]c2cccc(Cl)c2n1CCOc1ccccc1`, 2.95 µM.
Still for that read-out and setting: to `Fc1cccc2c1[nH]c(=S)n2CCOc1ccccc1` belongs 13.9 µM.
Regarding `Cc1ccc(OCCn2cnc3ccccc32)c(C)c1`, the AC50 is 14.6 µM.
For `Cc1ccc(C(C)C)c(OCCn2c(N)nc3ccccc32)c1`, the AC50 was 21.9 µM.
On the same count and under the same terms, for `CSc1nc2ccccc2n1CCOc1ccccc1` the value was 29.5 µM; for `Cc1cc2ncn(CCOc3ccccc3C)c2cc1C`, 8.4 µM.
On the same count and under the same terms, to `CC(C)(C)c1ccc(OCCn2cnc3ccccc32)c(Cl)c1` belongs 10.1 µM; to `Clc1ccc(OCCn2cnc3ccccc32)c(Cl)c1`, 11.8 µM; to `Cc1cccc(OCCn2cnc3ccccc32)c1`, 34.1 µM.
In the case of `CC(C)Oc1cccc(OCCn2cnc3ccccc32)c1`, the AC50 was 13.3 µM.
On to `Cc1cc2ncn(CCOc3ccccc3)c2cc1C`, for which the AC50 was 14.9 µM.
Same read-out and setting: for `Cc1cccc(OCCn2c(=S)[nH]c3c(F)cccc32)c1` the value was 8.18 µM and 7.2 µM; for `CC(C)c1ccccc1NCCn1c(=S)[nH]c2ccccc21`, > 70 µM (inactive); for `CC(C)(C)c1ccc(OCCn2cnc3ccccc32)cc1`, 11 µM.
The same measure, in the same setting: for `Cc1ccc(OCCn2cnc3cc(C)c(C)cc32)cc1` the value was 5.54 µM.
Regarding `Cc1cccc(OCCn2c(=S)[nH]c3ccccc32)c1`, the AC50 was 8.47 µM.
Same read-out and setting: to `c1ccc2c(c1)ncn2CCOc1ccc2c(c1)CCC2` belongs 3.3 µM; to `c1ccc(COc2ccc(OCCn3cnc4ccccc43)cc2)cc1`, 24.4 µM.
On the same count and under the same terms, to `Fc1ccc(OCCn2c(=S)[nH]c3ccccc32)cc1` belongs 36.6 µM; to `Cc1ccc2c(c1)[nH]c(=S)n2CCOc1ccccc1`, 7.79 µM.
Same read-out and setting: to `COCc1nc2ccccc2n1CCOc1ccc(C(C)(C)C)cc1` belongs 28.6 µM; to `Clc1ccc(OCCn2cnc3ccccc32)cc1`, 29 µM; to `CSc1nc2ccccc2n1CCOc1ccc(C)cc1`, 17.7 µM.
In the case of `Cc1cccc(OCCn2c(=S)[nH]c3cc(F)ccc32)c1`, the concentration at half-maximal activity (AC50) is 6.33 µM and 6 µM.
On the same count and under the same terms, to `S=c1[nH]c2cc(Cl)ccc2n1CCOc1ccccc1` belongs 36 µM; to `Fc1ccc2c(c1)[nH]c(=S)n2CCOc1ccccc1`, 12.4 µM and 15.5 µM.
Same read-out and setting: for `CCCc1nc2ccccc2n1CCOc1ccccc1` the value was 35.7 µM; for `Cc1ccc(C(C)C)c(OCCn2c(NC#N)nc3ccccc32)c1`, > 70 µM (inactive); for `Cc1ccc(C(C)C)c(OCCn2c(=O)[nH]c3ccccc32)c1`, > 70 µM (inactive).
The same measure, in the same setting: to `Cc1cccc(OCCn2c(=S)[nH]c3ccc(C(F)(F)F)cc32)c1` belongs > 70 µM (inactive); to `Cc1cc2ncn(CCOc3ccc4c(c3)CCC4)c2cc1C`, 3.63 µM.
Turning to `CCCCc1nc2ccccc2n1CCOc1ccccc1`, the concentration at half-maximal activity (AC50) is 24.3 µM.
`FC(F)(F)c1cccc(OCCn2cnc3ccccc32)c1`: the AC50 was 29.7 µM.
The same measure, in the same setting: for `Cc1ccc(OCCn2cnc3ccccc32)c(C(C)C)c1` the value was 32.8 µM; for `Cc1ccc(C(C)C)c(OCCn2c(=S)[nH]c3ccccc32)c1`, 3.96 µM; for `CC(C)c1ccccc1OCCn1c(=S)[nH]c2ccccc21`, 4.7 µM.
On the same count and under the same terms, for `CCSc1nc2ccccc2n1CCOc1ccccc1` the value was 35 µM; for `CC(C)Oc1ccc(OCCn2c(=S)[nH]c3ccccc32)cc1`, 12.1 µM; for `Cc1ccc(C(C)C)c(OCCn2c(CO)nc3ccccc32)c1`, > 70 µM (inactive).

Broadly, the AC50 is the concentration giving half of the maximal activity seen.

The values above are taken from PubChem BioAssay AID743305 (Broad Institute, 2014).
